Read-outs that look alike come from different tables or passages of the source.
How the values were obtained:
[1] = biological target: human GABAA α2β2γ1 receptor (Homo sapiens (Human), UniProt P47869+Q8N1C3); experiment: Radioligand binding assay, competition for [3H]RO7239181, γ1-containing GABAA subtypes
Procedure: (§1) Membrane Preparation and Binding Assay for γ1-containing GABAA Subtypes
(§2) The affinity of compounds at GABAA γ1 subunit-containing receptors was measured by competition for [^3H]RO7239181 (67.3 Ci/mmol: Roche) binding to membranes from HEK293F cells (ThermoFisher R79007) expressing human (transiently transfected) receptors of composition α5β2γ1, α2β2γ1, α1β2γ1.
(§3) Harvested pellets from HEK293F cells expressing the different GABAA receptor subtypes were resuspended in Mannitol Buffer pH 7.2-7.4 (Mannitol 0.29 M, Tricthylamine 10 mM. Acetic acid 10 mM. EDTA 1 mM plus protease inhibitors (20 tablets Complete. Roche Diagnostics Cat. No. 05 056 489 001 per liter)), washed two times and then resuspended at 1:10 to 1:15 dilution in the same buffer. Cell disruption was performed by stirring the suspension in a Parr vessel #4637 at 435 psi for 15 minutes, and then the suspensions were centrifuged at 1000×g for 15 minutes at 4° C. (Beckman Avanti J-HC: rotor JS-4.2). The supernatant (S1) was transferred in a 21 Schott flask and the pellet (P1) was resuspended with Mannitol Buffer up to 175 ml. The resuspended pellet was transferred into a 250 ml Corning centrifugal beaker and centrifuged at 1500 ×g for 10 minutes at 4° C. (Beckman Avanti J-HC: rotor JS-4.2). The supernatant (S1) was then transferred in the 21 Schott flask and the pellet was discarded. The supernatants (S1) were centrifuged in 500ml Beckman polypropylene centrifugal beaker at 15 000×g for 30 minutes at 4° C. (Beckman Avanti J-20 XP; rotor JLA-10.500). The pellet (P2) was resuspended with Mannitol Buffer 1:1 and frozen at −80° C. The supernatant (S2) was centrifuged in 100 ml Beckman polypropylene centrifugal tubes at 48000×g for 50 minutes at 4 °C (Beckman Avanti J-20 XP: rotor JA-18). The supernatant (S3) was discarded and the pellet (P3) was resuspended with 1:1 Mannitol Buffer. The P2 and P3 protein concentration was determined with the BIORAD Standard assay method with bovine serum albumin as standard and measured on the NANO-Drop 1000. The membrane suspension was aliquots (500μl per tube) and stored at −80° C. until required.
(§4) Membrane homogenates were resuspended and polytronised (Polytron PT1200E Kinematica AG) in Potassium Phosphate 10 mM, KCl 100 mM binding buffer at pH 7.4 to a final assay concentration determined with a previous experiment.
Radioligand binding assays were carried out in a volume of 200 μL (96-well plates) which contained 100 μL of cell membranes. […] Assays were incubated to equilibrium for 1 hour at 4° C. and then, membranes were filtered onto unifilter (96-well white microplate with bonded GF/C filters preincubated 20-50 minutes in 0.3% Polyethylenimine) with a Filtermate 196 harvester (Packard BioScience) and washed 4 times with cold Potassium Phosphate 10 mM pH 7.4. KCl 100 mM binding buffer. After anhydrousing, filter-retained radioactivity was detected by liquid scintillation counting. Ki values were calculated using Excel-Fit (Microsoft) and are the means of two determinations.

[2] = biological target: human GABAA α5β2γ1 receptor (Homo sapiens (Human), UniProt P31644+Q8N1C3); experiment: as above; settings: membranes from HEK293F cells, mean of two determinations
Procedure: as §1
as §2, with “α1β2γ1. For better protein expression of the α2 subunit-containing receptors, the 28 amino acid long signal peptide (Metl to Ala28) of the human GABAA α2 subunit was substituted by the 31 amino acid long signal peptide (Met1 to Ser31) of human GABAA α5 subunit.” for “α1β2γ1.”
as §3, §4
Radioligand binding assays were carried out in a volume of 200 μL (96-well plates) which contained 100 μL of cell membranes. [^3H]RO7239181 at a concentration of 1.5 nM (α5β2γ1) or 20-30 nM (α1β2γ1, α2β2γ1) and the test compound in the range of [0.3-10000]33 10^−9 M. Nonspecific binding was defined by […] (α5β2γ1) and […] RO7239181 and typically represented less than 5% (α5β2γ1) and less than 20% (α1β2γ1, α2β2γ1) of the total binding. Assays were incubated to equilibrium for 1 hour at 4° C. and then, membranes were filtered onto unifilter (96-well white microplate with bonded GF/C filters preincubated 20-50 minutes in 0.3% Polyethylenimine) with a Filtermate 196 harvester (Packard BioScience) and washed 4 times with cold Potassium Phosphate 10 mM pH 7.4. KCl 100 mM binding buffer. After anhydrousing, filter-retained radioactivity was detected by liquid scintillation counting. Ki values were calculated using Excel-Fit (Microsoft) and are the means of two determinations.
Representative test results, obtained by the above described assay measuring binding affinity to HEK293 cells expressing human (h) receptors, are shown in the Table 1.

[3] = read-out: Ki h-GABAA α2β2γ1, membranes from HEK293F cells, [3H]RO7239181 20-30 nM, mean of two determinations

SMILES | Ki [1] [nM] | Ki [1, 3] [nM] | Ki [2] [nM]
Cc1nc2n(n1)-c1sc3c(c1C(c1c(F)cccc1F)=N[C@H]2C)C[C@H](C(F)F)C3 [Example 17, (7S,13S)-13-(difluoromethyl)-9-(2,6-difluorophenyl)-4,7-dimethyl-16-thia-2,3,5,8-tetrazatetracyclo [8.6.0.02,6.011,15]hexadeca-1(10),3,5,8,11(15)-pentaene] | 57.9 | 57.9 | 31.6
C[C@@H]1N=C(c2c(F)cccc2F)c2c(sc3c2C[C@@H](C(F)F)C3)-n2nc(C(=O)NCCO)nc21 [Example 18, (7S,13R)-13-(difluoromethyl)-9-(2,6-difluorophenyl)-N-(2-hydroxyethyl)-7-methyl-16-thia-2,3,5,8-tetrazatetracyclo [8.6.0.02,6.011,15]hexadeca-1(10),3,5,8,11(15)-pentaene-4-carboxamide] | 5.7 | 5.7 | 2.5
C[C@@H]1N=C(c2c(F)cccc2F)c2c(sc3c2C[C@@H](C(F)F)C3)-n2nc(C(=O)N3CCS(=O)(=O)CC3)nc21 [Example 19, [(7S,13R)-13-(difluoromethyl)-9-(2,6-difluorophenyl)-7-methyl-16-thia-2,3,5,8-tetrazatetracyclo [8.6.0.02,6.011,15]hexadeca-1(10),3,5,8,11(15)-pentaen-4-yl]-(1,1-dioxo-1,4-thiazinan-4-yl)methanone] | 5.4 | 5.4 | 4.6
Cc1cnc2n1-c1sc3c(c1C(c1c(F)cccc1F)=N[C@H]2C)C[C@@H](C(F)F)C3 [Example 20, (7S,13R)-13-(difluoromethyl)-9-(2,6-difluorophenyl)-3,7-dimethyl-16-thia-2,5,8-triazatetracyclo [8.6.0.02,6.011,15]hexadeca-1(10),3,5,8,11(15)-pentaene] | 2.24 | 2.24 | 3.6
C[C@@H]1N=C(c2c(F)cccc2F)c2c(sc3c2C[C@@H](C(F)F)C3)-n2c(CO)cnc21 [Example 21, [(7S,13R)-13-(difluoromethyl)-9-(2,6-difluorophenyl)-7-methyl-16-thia-2,5,8-triazatetracyclo [8.6.0.02,6.011,15]hexadeca-1(10),3,5,8,11(15)-pentaen-3-yl]methanol] | 2.97 | 2.97 | 4.7
